Data reported in BindingDB's records for doi:10.7270/Q2XP773S (n/a, 1996).
pIC50: −log10 of the molar value.

Molecular target: Histamine H2 receptor (Cavia porcellus, UniProt P47747)
Test: ChEBML_85064
Excerpt: Histamine H2 receptor antagonistic activity

Chain of Histamine H2 receptor (P47747 whole entry): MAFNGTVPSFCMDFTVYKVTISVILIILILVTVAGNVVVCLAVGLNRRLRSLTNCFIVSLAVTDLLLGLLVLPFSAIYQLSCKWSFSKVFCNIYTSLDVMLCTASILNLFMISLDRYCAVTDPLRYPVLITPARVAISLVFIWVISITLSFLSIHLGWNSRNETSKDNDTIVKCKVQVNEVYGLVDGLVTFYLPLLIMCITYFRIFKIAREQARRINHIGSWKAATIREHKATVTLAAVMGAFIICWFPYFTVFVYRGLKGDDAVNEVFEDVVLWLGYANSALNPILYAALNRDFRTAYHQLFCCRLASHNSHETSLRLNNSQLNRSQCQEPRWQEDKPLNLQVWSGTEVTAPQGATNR

COCC/N=c1\c(O)c(O)c1=NC/C=C\COc1csc(CN2CCCCC2)c1
pIC50: 5.94

C/N=c1\c(O)c(O)c1=NC/C=C\COc1csc(CN2CCCCC2)c1
pIC50: 5.74

CN(C)Cc1cc(OC/C=C\CN=c2c(O)c(O)c2=N)cs1
pIC50: 6.16

CC(C)/N=c1\c(O)c(O)c1=NC/C=C\COc1csc(CN2CCCCC2)c1
pIC50: 5.71

CN(C)CC/N=c1\c(O)c(O)c1=NC/C=C\COc1csc(CN2CCCCC2)c1
pIC50: 6.09
